Source: patent US9233989B2, “Sila analogs of oxazolidinone derivatives and synthesis thereof” (Council of Scientific & Industrial Research, priority 2011, dated 2016)
Values after ≈ are worked out from the molar mass of the structure shown.

What was measured:
[1] = system: S.aureus ATCC 49775 PVL + ve; format: cell-based
MRSA ATCC 43300 = experiment: MIC by microbroth dilution method; format: cell-based, S. aureus
E.faecium 134 VRE = experiment: MIC by microbroth dilution method; format: cell-based
S.epidermidis ATCC 12228 = experiment: MIC by microbroth dilution method; format: cell-based
S.epidermis St 358 = experiment: MIC by microbroth dilution method; format: cell-based, S. epidermidis
MRSA DB 00026 = experiment: MIC by microbroth dilution method; format: cell-based, S. aureus
S.aureus ATCC 29213 = experiment: MIC by microbroth dilution method; format: cell-based
[2] = system: E.faecalis ATCC 51299(VRE&HLAR); experiment: MIC by microbroth dilution method; format: cell-based
E.faecalis ATCC 29212 = experiment: MIC by microbroth dilution method; format: cell-based
[3] = system: S.aureus ATCC 13709 Smith; experiment: MIC by microbroth dilution method; format: cell-based
E.coli 7632 = experiment: MIC by microbroth dilution method; format: cell-based
[4] = system: S.aureus 13709 LNZ mutant; format: cell-based
S.aureus2 (PVL + ve) = format: cell-based, S. aureus
MRSA 0-2657 = experiment: MIC by microbroth dilution method; format: cell-based, S. aureus
S.epidermidis ATCC 14990 = experiment: MIC by microbroth dilution method; format: cell-based
MRSA 252 BAA 1720 = experiment: MIC by microbroth dilution method; format: cell-based, S. aureus
E.faecium ATCC 3567 = experiment: MIC by microbroth dilution method; format: cell-based
MRSA 562 = experiment: MIC by microbroth dilution method; format: cell-based, S. aureus
MRSE ATCC 35984 = experiment: MIC by microbroth dilution method; format: cell-based, S. epidermidis
E.faecalis SP 346 VRE = experiment: MIC by microbroth dilution method; format: cell-based
MRSE ATCC 35983 = experiment: MIC by microbroth dilution method; format: cell-based, S. epidermidis
E.faecium ATCC 35667 = experiment: MIC by microbroth dilution method; format: cell-based
E.faecalis ATCC 19433 = experiment: MIC by microbroth dilution method; format: cell-based
S.aureus DB00026 = experiment: MIC by microbroth dilution method; format: cell-based
E.faecium ATCC 19434 = experiment: MIC by microbroth dilution method; format: cell-based
MRSA ATCC BAA 39 = experiment: MIC by microbroth dilution method; format: cell-based, S. aureus
E.faecium ATCC 49224 = experiment: MIC by microbroth dilution method; format: cell-based
E.faecium 6A VRE = experiment: MIC by microbroth dilution method; format: cell-based
E.faecium 06076 VRE = experiment: MIC by microbroth dilution method; format: cell-based
[5] = system: S.aureus ATCC 700699 Mu50; experiment: MIC by microbroth dilution method; format: cell-based
[6] = system: S.aureus ATCC Newman 25904; experiment: MIC by microbroth dilution method; format: cell-based
[7] = system: Mycobacterium tuberculosis H37Rv; experiment: Anti-TB activity, colorimetric resazurin microtiter assay; format: cell-based; conditions: Mycobacterium tuberculosis, H37RV, read-out: MIC, Minimum Inhibitory Concentration (90%)

Structure (SMILES)	MIC [1]	MIC (MRSA ATCC 43300) [µg/mL]	MIC (E.faecium 134 VRE) [µg/mL]	MIC (S.epidermidis ATCC 12228) [µg/mL]	MIC (S.epidermis St 358) [µg/mL]	MIC (MRSA DB 00026) [µg/mL]	MIC (S.aureus ATCC 29213) [µg/mL]	MIC [2] [µg/mL]	MIC (E.faecalis ATCC 29212) [µg/mL]	MIC [3] [µg/mL]	MIC (E.coli 7632) [µg/mL]	MIC [4]	MIC (S.aureus2 (PVL + ve)) [µg/mL]	MIC (MRSA 0-2657)	MIC (S.epidermidis ATCC 14990) [µg/mL]	MIC (MRSA 252 BAA 1720) [µg/mL]	MIC (E.faecium ATCC 3567) [µg/mL]	MIC (MRSA 562) [µg/mL]	MIC (MRSE ATCC 35984) [µg/mL]	MIC (E.faecalis SP 346 VRE)	also measured
C[Si]1(C)CCN(c2c(F)cc(N3C[C@H](CO)OC3=O)cc2F)CC1 [NDS-10052, (R)-3-(4-(4,4-dimethyl-1,4-azasilinan-1-yl)-3,5-difluorophenyl)-5-(hydroxymethyl)oxazolidin-2-one]	> 32 µg/mL	> 32	> 32	> 32	> 32	> 32	> 32	> 32	> 32	> 32	> 32	> 32 µg/mL	> 32	> 32 µg/mL	16 (≈ 44.9 µM)	> 32	32 (≈ 89.8 µM)	16 (≈ 44.9 µM)	32 (≈ 89.8 µM)	> 32 µg/mL	melting point: 126 to 128 °C; MIC (MRSE ATCC 35983): > 32 µg/mL; MIC (E.faecium ATCC 35667): 32 µg/mL (≈ 89.8 µM); MIC (E.faecalis ATCC 19433): > 32 µg/mL; MIC (S.aureus DB00026): 32 µg/mL (≈ 89.8 µM); MIC (E.faecium ATCC 19434): 16 µg/mL (≈ 44.9 µM); MIC (MRSA ATCC BAA 39): 16 µg/mL (≈ 44.9 µM); MIC (E.faecium ATCC 49224): 8 µg/mL (≈ 22.4 µM); MIC (E.faecium 6A VRE): 8 µg/mL (≈ 22.4 µM); MIC (E.faecium 06076 VRE): > 32 µg/mL; MIC [5]: 8 µg/mL (≈ 22.4 µM); MIC [6]: > 32 µg/mL
COC(=S)NC[C@H]1CN(c2ccc(N3CC[Si](C)(C)CC3)c(F)c2)C(=O)O1 [NDS-10062, (S)—O-methyl((3-(4-(4,4-dimethyl-1,4-azasilinan-1-yl)-3-fluorophenyl)-2-oxooxazolidin-5-yl)methyl)carbamothioate]	4 µg/mL (≈ 9.72 µM)	4 (≈ 9.72 µM)	4 (≈ 9.72 µM)	> 32	4 (≈ 9.72 µM)	4 (≈ 9.72 µM)	4 (≈ 9.72 µM)	4 (≈ 9.72 µM)	1 (≈ 2.43 µM)	4 (≈ 9.72 µM)	2 (≈ 4.86 µM)	4 µg/mL (≈ 9.72 µM)	4 (≈ 9.72 µM)	4 µg/mL (≈ 9.72 µM)	4 (≈ 9.72 µM)	8 (≈ 19.4 µM)	4 (≈ 9.72 µM)	4 (≈ 9.72 µM)	2 (≈ 4.86 µM)	4 µg/mL (≈ 9.72 µM)	MIC (MRSE ATCC 35983): 4 µg/mL (≈ 9.72 µM); MIC [7]: 50 µg/mL (≈ 121 µM); MIC (E.faecium ATCC 35667): 4 µg/mL (≈ 9.72 µM); MIC (E.faecalis ATCC 19433): 2 µg/mL (≈ 4.86 µM); MIC (S.aureus DB00026): 4 µg/mL (≈ 9.72 µM); MIC (E.faecium ATCC 19434): 8 µg/mL (≈ 19.4 µM); MIC (MRSA ATCC BAA 39): 4 µg/mL (≈ 9.72 µM); MIC (E.faecium ATCC 49224): 4 µg/mL (≈ 9.72 µM); MIC (E.faecium 6A VRE): 8 µg/mL (≈ 19.4 µM); MIC (E.faecium 06076 VRE): 4 µg/mL (≈ 9.72 µM); MIC [5]: 8 µg/mL (≈ 19.4 µM); MIC [6]: 4 µg/mL (≈ 9.72 µM)
C[Si]1(c2ccccc2)CCN(c2c(F)cc(N3C[C@H](CN)OC3=O)cc2F)CC1 [NDS-10070, (S)-5-(aminomethyl)-3-(3,5-difluoro-4-(4-methyl-4-phenyl-1,4-azasilinan-1-yl)phenyl)oxazolidin-2-one]	> 32 µg/mL	> 32	> 32	> 32	> 32	> 32	> 32	32 (≈ 76.6 µM)	32 (≈ 76.6 µM)	> 32	32 (≈ 76.6 µM)	> 32 µg/mL	> 32	> 32 µg/mL	> 32	> 32	> 32	32 (≈ 76.6 µM)	32 (≈ 76.6 µM)	> 32 µg/mL	MIC (MRSE ATCC 35983): > 32 µg/mL; MIC [7]: 50 µg/mL (≈ 120 µM); MIC (E.faecium ATCC 35667): 32 µg/mL (≈ 76.6 µM); MIC (E.faecalis ATCC 19433): 32 µg/mL (≈ 76.6 µM); MIC (S.aureus DB00026): > 32 µg/mL; MIC (E.faecium ATCC 19434): 32 µg/mL (≈ 76.6 µM); MIC (MRSA ATCC BAA 39): > 32 µg/mL; MIC (E.faecium ATCC 49224): 32 µg/mL (≈ 76.6 µM); MIC (E.faecium 6A VRE): > 32 µg/mL; MIC (E.faecium 06076 VRE): > 32 µg/mL; MIC [5]: > 32 µg/mL; MIC [6]: > 32 µg/mL
C[Si]1(c2ccccc2)CCN(c2c(F)cc(N3C[C@H](CO)OC3=O)cc2F)CC1 [NDS-10071, (R)-3-(3,5-difluoro-4-(4-methyl-4-phenyl-1,4-azasilinan-1-yl)phenyl)-5-(hydroxylmethyl)oxazolidin-2-one]	16(ppt)	> 32	8 (≈ 19.1 µM)	> 32	16 (≈ 38.2 µM)	16 (≈ 38.2 µM)	> 32	32 (≈ 76.5 µM)	8 (≈ 19.1 µM)	32 (≈ 76.5 µM)	16 (≈ 38.2 µM)	16(ppt)	32 (≈ 76.5 µM)	8(ppt)	16 (≈ 38.2 µM)	32 (≈ 76.5 µM)	> 32	32 (≈ 76.5 µM)	16 (≈ 38.2 µM)	16(ppt)	melting point: 105 to 107 °C; MIC (MRSE ATCC 35983): 16 µg/mL (≈ 38.2 µM); MIC [7]: 50 µg/mL (≈ 119 µM); MIC (E.faecium ATCC 35667): 16 µg/mL (≈ 38.2 µM); MIC (E.faecalis ATCC 19433): 16 µg/mL (≈ 38.2 µM); MIC (S.aureus DB00026): 32 µg/mL (≈ 76.5 µM); MIC (E.faecium ATCC 19434): 32 µg/mL (≈ 76.5 µM); MIC (MRSA ATCC BAA 39): 32 µg/mL (≈ 76.5 µM); MIC (E.faecium ATCC 49224): 32 µg/mL (≈ 76.5 µM); MIC (E.faecium 6A VRE): 32 µg/mL (≈ 76.5 µM); MIC (E.faecium 06076 VRE): 32 µg/mL (≈ 76.5 µM); MIC [5]: 32 µg/mL (≈ 76.5 µM); MIC [6]: 16 µg/mL (≈ 38.2 µM)
